Measurements taken from PubChem BioAssay (NCI).
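Protocol summary: plate cells (96-well), add compound at 5 concentrations, incubate 48 h, interpolate endpoints linearly. The concentration for 50% growth inhibition is given as GI50. TGI is the concentration that stops growth completely.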

Columns and labels:
Assay in all cases: NCI tumour cell line growth inhibition, 48 h
[1] = test system: ACHN renal
[2] = test system: CCRF-CEM leukemia
[3] = test system: EKVX NSCLC
[4] = test system: HL-60(TB) leukemia
[5] = test system: HOP-92 NSCLC
[6] = test system: IGROV1 ovarian
[7] = test system: MDA-MB-231 breast
[8] = test system: SF-268 CNS
[9] = test system: SNB-75 CNS
[10] = test system: UACC-62 melanoma
[11] = test system: K-562 leukemia

With CC1(C)O[C@H]2OC(CO)C(OS(C)(=O)=O)[C@H]2O1 (stereo partly specified) the TGI [1] was over 100 µM, the TGI [2] was over 100 µM and the TGI [3] was over 100 µM. It also gave a TGI [4] of over 100 µM, a TGI [5] of over 100 µM and a TGI [6] of over 100 µM. For the same compound, the TGI [7] was over 100 µM, the TGI [8] was over 100 µM and the TGI [9] was over 100 µM. The TGI [10] was over 100 µM.

With O=[N+]([O-])c1ccc2nc(/C=C(\O)c3ccccc3)c(/C=C(\O)c3ccccc3)nc2c1 the TGI [1] was over 100 µM, the TGI [2] was 35.8 µM and the TGI [3] was over 100 µM. It also gave a GI50 [4] of 13.6 µM, a TGI [4] of 52.6 µM and a GI50 [5] of 0.195 µM. The TGI [5] was 5.63 µM, the TGI [6] was over 56.4 µM and the TGI [11] was over 100 µM. The TGI [7] was 39.4 µM, the TGI [8] was 53.4 µM and the TGI [9] was 32.1 µM. For the same compound, the TGI [10] was 18.8 µM.

O=C(NN1C(=O)CSC1c1ccco1)c1ccncc1 (stereo unspecified) was tested, and the TGI [1] was over 100 µM, the TGI [2] was over 100 µM and the TGI [3] was over 100 µM. The TGI [4] was over 100 µM, the TGI [5] was over 100 µM and the TGI [6] was over 100 µM. The TGI [11] was over 100 µM, the TGI [7] was over 100 µM and the TGI [8] was over 100 µM. For the same compound, the TGI [10] was over 100 µM.

In the case of COc1cccc2c1-c1c(OC)cccc1SS2, the TGI [1] is reported as over 100 µM, the TGI [3] is reported as 31.4 µM and the TGI [4] is reported as 7.35 µM. It also gave a TGI [5] of 36 µM, a TGI [6] of 41.6 µM and a TGI [11] of over 100 µM. The TGI [7] was 56.1 µM, the TGI [8] was 80 µM and the TGI [10] was 92.5 µM.

In the case of CN(C)CCCNc1cnc2cc3ccccc3cc2n1, the TGI [1] is reported as over 100 µM, the TGI [2] is reported as 88.1 µM and the TGI [3] is reported as over 100 µM. The TGI [4] was 68.3 µM, the TGI [5] was 95.8 µM and the TGI [6] was 31.8 µM. It also gave a TGI [11] of 70.2 µM, a TGI [7] of 41.4 µM and a TGI [8] of 77.1 µM. The TGI [9] was 70.6 µM and the TGI [10] was 30 µM.

For CC1(C)OCC(COC(=O)NCn2cc(-c3ccccc3)nn2)O1 (stereo unspecified), the TGI [1] was over 100 µM, the TGI [2] was over 100 µM and the TGI [3] was over 100 µM. The TGI [4] was over 100 µM, the TGI [5] was over 100 µM and the TGI [6] was over 100 µM. For the same compound, the TGI [11] was over 100 µM, the TGI [7] was over 100 µM and the TGI [8] was over 100 µM. For the same compound, the TGI [9] was over 100 µM.

Work on COc1ccc(N2C(N)=C(C#N)C(C#N)(C#N)C2c2cccc([N+](=O)[O-])c2)cc1 (stereo unspecified) yielded a TGI [1] of 27.4 µM, a TGI [2] of over 24.6 µM and a TGI [3] of 39.7 µM. For the same compound, the TGI [4] was over 25.7 µM, the TGI [5] was 26.2 µM and the TGI [6] was 29.7 µM. The TGI [11] was 14.7 µM, the TGI [7] was 29.1 µM and the TGI [8] was 44 µM. The TGI [9] was 35.1 µM and the TGI [10] was 30.1 µM.

Compound COc1cc(O)c2c(=O)c(OC)c(-c3ccc4c(c3)OCO4)oc2c1OC has a TGI [1] of over 50 µM, a TGI [2] of over 50 µM and a TGI [3] of over 50 µM. For the same compound, the TGI [4] was over 50 µM, the TGI [5] was 44.2 µM and the TGI [6] was over 50 µM. It also gave a TGI [11] of over 50 µM, a TGI [7] of over 50 µM and a TGI [8] of over 50 µM. For the same compound, the TGI [9] was 31.9 µM and the TGI [10] was over 50 µM.

COC12OC3CC4(C)C(=CC3OC(OC(C)C1O)C2O)CCC1C4CCC2(C)C(c3ccc(=O)oc3)CCC12O (stereo unspecified) was tested, and the TGI [1] was 0.00449 µM, the TGI [2] was 0.00208 µM and the TGI [3] was under 0.001 µM. It also gave a TGI [4] of 0.00215 µM, a TGI [5] of 0.0347 µM and a TGI [6] of 0.00389 µM. For the same compound, the TGI [11] was 0.00718 µM, the TGI [7] was 0.00792 µM and the TGI [8] was 0.00157 µM. The TGI [9] was 0.00571 µM and the TGI [10] was 0.00472 µM.
